The record followed here is patent US11707472B2, “Compositions for the treatment of fibrosis” (Viking Therapeutics, Inc., priority 2017, dated 2023).

What all share (assay type): in vivo
One series has as its system DIO-NASH mice. In words: DIO-NASH mice, 8 weeks oral treatment, liver fibrosis readouts (Example 1). The conditions noted are these: oral once per day; for liver Picro-Sirius Red (PSR) staining (total liver collagen 1 and 3 by morphometry): Compound 1 10 mg/kg; for proportion of animals with a reduction in fibrosis score post-treatment: vs mock treated animals. The protocol: DIO-NASH mice were acclimatized for 3 weeks, with pre-treatment liver biopsy samples collected prior to acclimatization. Mice were randomly assigned to one of five dosing groups, with 12 mice per group. Assigned dosages were: Compound 2 (low): 3 mg/kg; Compound 2 (high): 10 mg/kg; Compound 1: 10 mg/kg; and Elafibranor (30 mg·kg). One group was mock treated with vehicle only as a control. Dosage forms were administered orally once per day. After 8 weeks, animals were sacrificed and liver samples were taken. Liver samples were assayed for total liver hydroxyproline, and subjected to immunohistochemical observation for fibrosis stage as well as the extent of Cola1 (Collagen Type Ia) staining. […] Since hydroxyproline is a significant component of collagen, and collagen is the most significant source of hydroxyproline in animal tissues, levels of hydroxyproline provide a reliable proxy for the presence of collagen in a sample.
Terminal liver biopsy samples were also subjected to histochemical staining and immunohistochemical staining. Representative images of liver stained with Picro-Sirius Red (to visualize collagen I and III deposition, red stain) at the end of the treatment period following 8 weeks of treatment with vehicle, low dose Compound 2, high dose Compound 2, Compound 1, or elafibranor are shown in FIG. 2. […] Representative images of liver stained with anti-type I collagen (col1a1) (Southern Biotech, Cat. 131001) at the end of the treatment period following 8 weeks of treatment with vehicle, low dose Compound 2, high dose Compound 2, Compound 1, or elafibranor are shown in FIG. 3. The extent of ColA1 content was calculated as the total liver ColA1 staining in terminal liver biopsy samples.
Fibrosis scores were also calculated based on observation of terminal liver biopsy samples.

The test system of series [1] is diet-induced NASH mouse model. In words: diet-induced NASH mouse model, 8-week dosing (Example 6). Conditions: diet-induced NASH mice, oral dosing 8 weeks. Set-up: reduction in fibrosis (fibrosis score) / reduction in type 1 collagen deposition / reduction in hydroxyproline / reduction of expression of pro-fibrotic gene Colla1 / reduction of expression of pro-fibrotic gene Col3a1 / reduction of expression of pro-fibrotic gene αSMA / reduction of expression of pro-fibrotic gene Galectin 1: concentration or dose not given beside the values. The protocol:
Compound 2 was evaluated in a diet-induced NASH mouse model (See, e.g., Hansen, H. et al., Drug Discovery Today 22(17):1701-1718 (2017) which is hereby incorporated by reference with respect to its disclosure of diet-induced, genetic, chemical, and other NASH mouse models). […] Animals were biopsied pre-study, and only animals with NASH and fibrosis were selected for study. Selected animals were acclimatized and randomized, with experimental groups of 11-12 animals per cohort receiving oral dosing of compound 2 according to the following schedules: Daily dosing for 8 weeks; or daily dosing for week 0-1 followed by weekly dosing for weeks 2-8. At week 8, animals were sacrificed and tissues analyzed. Plasma enzymes (P-ALT (alanine aminotransferase) and P-AST (aspartate aminotransferase)), total plasma triglycerides, and total plasma cholesterol were measured, and terminal necropsy of each liver was carried out, assaying total liver biochemistry including total liver triglycerides, and total liver cholesterol, as well as histological evaluation of NAFLD activity score (done pre- and post-treatment), fibrosis stage (also done pre- and post-treatment), steatosis, Colla1 level, and galactin-3 level. Tissue samples were preserved for characterization using RNAseq; RNAseq was used to determine expression levels for genes showing differential expression in compound 2-treated vs. vehicle treated animals and/or genes known to be implicated in fibrosis.

The test system of series [2] is male Dunkin-Hartley guinea pigs. The series can be described thus: bleomycin-induced pulmonary fibrosis (Example 2). Conditions: guinea pig lung biopsies, 6-10 weeks treatment; relative to levels prior to administration. The protocol:
Pulmonary fibrosis is induced in healthy male Dunkin-Hartley guinea pigs by administering bleomycin intratracheally. Control subjects are developed by intratracheal administration of saline solution. After the establishment of pulmonary fibrosis in the bleomycin treated animals, test articles comprising any one of Compounds 1-4, or any other compound disclosed herein, are administered to each subject as appropriate for its formulation, daily or as appropriate, for 6-10 weeks. Unilateral lung biopsies are taken prior to the first administration of the test articles and again after sacrifice following the last administration of the test articles. Biopsy samples are analyzed as described in Example I, with the addition of immunohistochemical staining for type III collagen. […] Mock treated animals show little or no reduction in fibrosis, hydroxyproline content, or Collagen III content.

Another series deals with nude mice. In words: palmar fascia fibrosis induced by Dupuytren's disease fibroblasts (second Example 2). The conditions noted are these: nude mice forepaw biopsies, 6-10 weeks treatment; relative to levels prior to administration. The source says:
Palmar fascia fibrosis is induced in nude mice by introducing fibroblasts from fibrotic cords of Dupuytren's disease patients as described in Stish, L. et al., BMC Musculoskelet. Disord. 16: 138-148 (2015) which is hereby incorporated by reference with respect to its description of the establishment of an animal model system for the study of palmar fascia fibrosis. After the establishment of palmar fascia fibrosis in the fibroblast treated animals, test articles comprising any one of Compounds 1-4, or any other compound disclosed herein, are administered to each subject as appropriate for its formulation, daily or as appropriate, for 6-10 weeks. Unilateral forepaw biopsies are taken prior to the first administration of the test articles and again after sacrifice following the last administration of the test articles. Biopsy samples are analyzed as described in Example 1, with the addition of immunohistochemical staining for type I collagen. […] Mock treated animals show little or no reduction in fibrosis, hydroxyproline content, or Collagen III content.

The subject of series [3] is Sprague-Dawley Rats or C57BL mice. The series can be described thus: hypertrophic skin lesions induced by capsaicin, CCl4 and/or bleomycin (Example 3). Conditions: rat or mouse skin biopsies, 6-10 weeks treatment; relative to levels prior to administration. The source says:
Hypertrophic skin lesions are induced in Sprague-Dawley Rats by subcutaneous injection of capsaicin as described in Wallengren, J. et al., Skin Pharm. Appl. Skin Physiol. 15(3):154-165 (2002), which is hereby incorporated by reference with respect to its description of the induction of hypertrophic skin lesions in rats; or in C57BL or other appropriate strain mice by subcutaneous administration of CCl4 and/or bleomycin, as described in Alonso-Merino et al., Proc. Nat. Acad. Sci. 113(24):E3451-60 (2016), which is incorporated herein for its disclosure of the induction of fibrotic skin lesions in mice. After the establishment of hypertrophic skin lesions in the capsaicin, CCl4 and/or bleomycin treated animals, test articles comprising any one of Compounds 1-4, or any other compound disclosed herein, are administered to each subject animal as appropriate for its formulation, daily or as appropriate, for 6-10 weeks. Skin biopsies from the injection site are taken prior to the first administration of the test articles and again after sacrifice following the last administration of the test articles. Biopsy samples are analyzed as described in Example I, with the addition of immunohistochemical staining for type III collagen. […] Mock treated animals show little or no reduction in fibrosis, hydroxyproline content, or Collagen III content.

In series [4] the test system is Glucose-6-phosphatase-α deficient mice (Agl−/−). In words: GSD-3-like hepatic symptoms in Agl-/- mice (Example 4). Conditions: Agl−/− mice liver biopsies, 6-10 weeks treatment; relative to levels prior to administration. The protocol: (§1) Glucose-6-phosphatase-α deficient mice that manifest GSD-3-like hepatic symptoms, including hypercholesterolemia and hyperlipidemia (Agl−/−, see e.g. Liu, K. M. et al., Mol. Genet. Metabol. 111(4):467-76 (2014)) are treated with test articles comprising any one of Compounds 1-4, or any other compound disclosed herein, administered to each subject as appropriate for its formulation, daily or as appropriate, for 6-10 weeks. Liver biopsies are taken prior to the first administration of the test articles and again after sacrifice following the last administration of the test articles. […] Mock treated animals show little or no reduction in fibrosis, hydroxyproline content, or Collagen I content.

The subject of series [5] is Phosphorylase kinase deficient mice (PhKc−/−). In words: GSD-8/9-like hepatic symptoms in PhKc-/- mice (Example 5). Conditions: PhKc−/− mice liver biopsies, 6-10 weeks treatment; relative to levels prior to administration. As for the experimental part: as §1, with “Phosphorylase kinase” for “Glucose-6-phosphatase-α”, “GSD-8/9-like” for “GSD-3-like”, “(PhKc−/−, see, e.g., Varsanyi,” for “(Agl−/−, see e.g. Liu, K.”, “Biochem.” for “Mol.”, “18(3-4):247-61 (1980)),” for “Metabol. 111(4):467-76 (2014))”

The mark [6] stands for this setting: Compound 2 3 and 10 mg/kg, vs elafibranor (control) and vehicle (mock).
[7] abbreviates: liver RNAseq, FIG. 8, vs vehicle-treated controls.
The mark [8] stands for this setting: liver, FIG. 7, relative to pre-treatment samples.

As for `Cc1cc(OCP(=O)(OCOC(=O)C(C)(C)C)OCOC(=O)C(C)(C)C)cc(C)c1Cc1ccc(O)c(Cc2ccccc2)c1` [Compound 1], the “liver Picro-Sirius Red (PSR) staining (total liver collagen 1 and 3 by morphometry)” value with DIO-NASH mice (setting [6]) is on record as “lower PSR staining than those from mock-treated animals”. Also, in the series with DIO-NASH mice, the “proportion of animals with a reduction in fibrosis score post-treatment” value is listed as “higher proportion”.

`Cc1cc(OCP2(=O)OCC[C@@H](c3cccc(Cl)c3)O2)cc(C)c1Cc1ccc(O)c(C(C)C)c1` (stereo partly shown) [Compound 2]: in the series on DIO-NASH mice, the “animals with increases in fibrosis score post-treatment” value is “No Compound 2-treated animals showed increases” and the “proportion of animals with a reduction in fibrosis score post-treatment” value is on record as “higher proportion”. For the same molecule, the “liver Picro-Sirius Red (PSR) staining (total liver collagen 1 and 3 by morphometry)” value in the series with DIO-NASH mice (setting [6]) was “lower PSR staining than control-treated or mock-treated animals”. Besides, the total liver hydroxyproline entry in the series on DIO-NASH mice (Compound 2 3 mg/kg (low) and 10 mg/kg (high), vs elafibranor 30 mg/kg (control) and vehicle (mock)) is reported as “lower total liver hydroxyproline levels than control-treated or mock-treated animals”. The “total liver ColA1 content (anti-type I collagen staining)” value in the series on DIO-NASH mice (Compound 2 3 and 10 mg/kg, terminal liver biopsy, vs elafibranor (control) and vehicle (mock)) is “lower total liver ColA1 content than control-treated or mock-treated animals”. Besides, in series [1], the “NAS scores (NAFLD activity score)” value was “significant improvements” and the toxicity result is reported as “No significant toxicity”. Further, the “reduction of total lipid content in the liver” value in series [1] (FIG. 6, vs vehicle-treated controls) was “approximately 80%”. Besides, in series [1] (setting [7]), the “reduction of expression of pro-fibrotic gene Col3a1” value is on record as 27.1%, the “reduction of expression of pro-fibrotic gene Colla1” value was found to be 36.3%, the “reduction of expression of pro-fibrotic gene Galectin 1” value amounted to 64.7% and the “reduction of expression of pro-fibrotic gene αSMA” value is recorded as 37%. In series [1] (setting [8]), the “reduction in fibrosis (fibrosis score)” value is recorded as 50.2%, the reduction in hydroxyproline amounted to 46.3% and the “reduction in type 1 collagen deposition” value turned out to be 60.2%. Also, in series [1] (relative to untreated controls), the liver cholesterol result was “Significant reductions” and the liver triglycerides entry is on record as “Significant reductions”. In addition, in series [2], the “lung Collagen III staining” value is reported as “decreased”, the lung fibrosis score result is reported as “decreased” and the lung hydroxyproline levels entry is listed as “reduced levels”. In the series on nude mice, the “palmar fascia Collagen III staining” value is on record as “decreased”, the “palmar fascia fibrosis score” value was “decreased” and the “palmar fascia hydroxyproline levels” value is given as “reduced levels”. In addition, in series [3], the “injection site skin Collagen III staining” value is “decreased”, the “injection site skin fibrosis score” value was “decreased” and the “injection site skin hydroxyproline levels” value was “reduced levels”. Also, in series [4], the “liver Collagen I staining” value is given as “decreased”, the liver fibrosis score entry is “decreased” and the liver hydroxyproline levels entry is “reduced levels”. In addition, in series [5], the “liver Collagen I staining” value is listed as “decreased”, the liver fibrosis score entry is recorded as “decreased” and the liver hydroxyproline levels entry is “reduced levels”.
